Measurements as given in the supplement of paper PMC10307832.

Tests used:
Assay in all cases: relative viability (nuclei count vs DMSO), 5 days (fraction); higher = more cells survive
[1] = compound: COc1ccc(-c2ccc3c(N4CCOC[C@@H]4C)nc(N4CCOC[C@@H]4C)nc3n2)cc1CO [AZD8055] + CC(C)C[C@H](NC(=O)[C@H](Cc1ccccc1)NC(=O)c1cnccn1)B(O)O [Bortezomib] (partner 0.002 µM)
Method in brief: (§1)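 Relative viability is defined as nuclei in treated wells over nuclei in vehicle wells. Duplicate plates were run and medians reported. Lung cancer cell lines in 1536-well plates were dosed by pin tool one day after seeding, with one drug or with a fixed anchor-drug dose plus five library-drug doses (not always all listed) in √10 steps, and nuclei were counted after 5 days.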

[2] = compound: COc1ccc(-c2ccc3c(N4CCOC[C@@H]4C)nc(N4CCOC[C@@H]4C)nc3n2)cc1CO [AZD8055] + CC1(C)CCC(c2ccc(Cl)cc2)=C(CN2CCN(c3ccc(C(=O)NS(=O)(=O)c4ccc(N[C@H](CCN5CCOCC5)CSc5ccccc5)c(S(=O)(=O)C(F)(F)F)c4)cc3)CC2)C1 [Navitoclax] (partner 0.5 µM)
Method in brief: as §1

[3] = compound: COc1ccc(-c2ccc3c(N4CCOC[C@@H]4C)nc(N4CCOC[C@@H]4C)nc3n2)cc1CO [AZD8055] + Cc1nc(Nc2ncc(C(=O)Nc3c(C)cccc3Cl)s2)cc(N2CCN(CCO)CC2)n1 [Dasatinib] (partner 0.075 µM)
Method in brief: as §1

[4] = compound: COc1ccc(-c2ccc3c(N4CCOC[C@@H]4C)nc(N4CCOC[C@@H]4C)nc3n2)cc1CO [AZD8055] + CCNC(=O)c1noc(-c2cc(C(C)C)c(O)cc2O)c1-c1ccc(CN2CCOCC2)cc1 [Luminespib] (partner 0.01 µM)
Method in brief: as §1

Cell Line	relative viability ([1]; first compound 0.01 µM)	relative viability ([1]; first compound 0.03162 µM)	relative viability ([1]; first compound 0.1 µM)	relative viability ([1]; first compound 0.3162 µM)	relative viability ([1]; first compound 1 µM)	relative viability ([2]; first compound 0.01 µM)	relative viability ([2]; first compound 0.03162 µM)	relative viability ([2]; first compound 0.1 µM)	relative viability ([2]; first compound 0.3162 µM)	relative viability ([2]; first compound 1 µM)	relative viability ([3]; first compound 0.01 µM)	relative viability ([3]; first compound 0.03162 µM)	relative viability ([3]; first compound 0.1 µM)	relative viability ([3]; first compound 0.3162 µM)	relative viability ([3]; first compound 1 µM)	relative viability ([4]; first compound 0.01 µM)	relative viability ([4]; first compound 0.03162 µM)	relative viability ([4]; first compound 0.1 µM)	relative viability ([4]; first compound 0.3162 µM)	relative viability ([4]; first compound 1 µM)
NCI-H2126	1.14	1.08	1.05	0.676	0.638	0.801	0.763	0.641	0.487	0.345	0.535	0.5	0.464	0.281	0.316	0.921	0.884	0.484	0.308	0.312
NCI-H2228	0.877	0.507	0.315	0.198	0.29	0.804	0.86	0.24	0.18	0.244	0.429	0.358	0.136	0.144	0.171	0.137	0.11	0.104	0.15	0.144
NCI-H2347	0.704	0.944	0.598	0.438	0.401	0.859	0.595	0.453	0.339	0.24	0.307	0.29	0.252	0.235	0.213	0.295	0.251	0.367	0.282	0.222
NCI-H2405	1	0.975	0.906	0.46	0.414	0.939	0.93	0.708	0.392	0.291	0.225	0.204	0.215	0.188	0.183	0.757	0.564	0.536	0.289	0.279
